Measurements: ChEMBL document CHEMBL1133971, “EDTA bis-(ethyl phenylalaninate): a novel transition metal-ion chelating hydroxyl radical scavenger with a potential anti-inflammatory role” (Bioorg Med Chem Lett, 2001)

What was measured:
[1] = Antioxidant efficacy as assessed by the deoxyribose assay at a concentration of 0.104 mM
[2] = Antioxidant efficacy as assessed by the deoxyribose assay at a concentration of 1.040 mM
[3] = Antioxidant efficacy as assessed by the deoxyribose assay at a concentration of 5.2 mM
[4] = Antioxidant efficacy as assessed by the deoxyribose assay in presence of EDTA (0.104 mM) and phenylalanine (0.208 mM)

Compound CCOC(=O)C(Cc1ccccc1)NC(=O)CN(CCN(CC(=O)O)CC(=O)NC(Cc1ccccc1)C(=O)OCC)CC(=O)O (centres undefined) has an inhibition [1] of 20%, an inhibition [2] of 42% and an inhibition [3] of 51%. It also gave an inhibition [4] of 2%.
